Patent US20130344026A1, “Dimeric Smac Mimetics” (priority 2009, published 2013)

These molecules were tested on HCC461 (assay: cell viability assay in HCC461, compound alone). Conditions: HCC461, HCC461; Tables 6-9; read-out: IC50 (μM) in cell viability assay in HCC461.
Type: cell-based

| Structure (SMILES) | IC50 [µM] |
| --- | --- |
| CCC[C@H](NC(=O)[C@H](C)NC)C(=O)N1C[C@@H](NC(=O)c2cccc(C(=O)N[C@H]3C[C@@H](C(=O)N[C@@H]4CCCc5ccccc54)N(C(=O)[C@@H](NC(=O)[C@H](C)NC)C(C)(C)C)C3)c2)C[C@H]1C(=O)N[C@H](C)C(C)C [Compound 140] | 0.28 |
| CN[C@@H](C)C(=O)N[C@H](C(=O)N1C[C@@H](NC(=O)CC[C@@H](NC(=O)[C@H](NC(=O)[C@@H](C)NC)C(C)(C)C)C(=O)N[C@H]2CCCc3ccccc32)C[C@H]1C(=O)N[C@@H]1CCCc2ccccc21)C(C)(C)C [Compound 157] | 0.03 |
| CCC[C@H](NC(=O)[C@H](C)NC)C(=O)N1C[C@@H](NC(=O)c2cccc(C(=O)N[C@H]3C[C@@H](C(=O)N[C@@H]4CCCc5ccccc54)N(C(=O)[C@@H](NC(=O)[C@H](C)NC)C(C)(C)C)C3)c2)C[C@H]1C(=O)N1CCCCC1 [Compound 141] | 0.109 |
| CN[C@@H](C)C(=O)NC(C(=O)N1C[C@@H](NC(=O)c2cc(NC(=O)OCc3ccc([N+](=O)[O-])cc3)cc(C(=O)N[C@H]3C[C@@H](C(=O)N[C@@H]4CCCc5ccccc54)N(C(=O)[C@@H](NC(=O)[C@H](C)NC)C(C)(C)C)C3)c2)CC1C(=O)N[C@@H]1CCCc2ccccc21)C(C)(C)C (some centres unmarked) [Compound 110] | 0.059 |
| CN[C@@H](C)C(=O)N[C@H](C(=O)N[C@H]1C[C@@H](C(=O)N[C@@H]2CCCc3ccccc32)N(C(=O)[C@@H](NC(=O)[C@H](C)NC)C(C)(C)C)C1)C(C)(C)C [Compound 145] | > 30 |
| CN[C@@H](C)C(=O)N[C@@H](C(C)C)C(C)N[C@@H](CNC(=O)c1cccc(C(=O)N[C@H]2C[C@@H](C(=O)N[C@@H]3CCCc4ccccc43)N(C(=O)[C@@H](NC(=O)[C@H](C)NC)C(C)(C)C)C2)c1)C(=O)N[C@H](C)C(C)C (some centres unmarked) [Compound 136] | > 30 |
| CN[C@@H](C)C(=O)N[C@H](C(=O)N1C[C@@H](NC(=O)CC[C@@H](NC(=O)[C@H](NC(=O)[C@@H](C)NC)C(C)C)C(=O)N[C@@H](C)C(C)C)C[C@H]1C(=O)N[C@H](C)C(C)C)C(C)(C)C [Compound 160] | 29.4 |
| CN[C@@H](C)C(=O)N[C@@H](CCCCNC(=O)c1cccc(C(=O)NCCCC[C@H](NC(=O)[C@H](C)NC)C(=O)N2CCCC[C@H]2C(=O)N[C@@H]2CCCc3ccccc32)c1)C(=O)N1CCCC[C@H]1C(=O)N[C@@H]1CCCc2ccccc21 [Compound 142] | > 30 |

Same assay, conditions: HCC461, HCC461; Tables 15-18; read-out: IC50 (uM) in cell viability assay in HCC461

| Structure (SMILES) | IC50 [µM] |
| --- | --- |
| CC[C@H](NC)C(=O)N[C@@H](CCCCCC[C@H](NC(=O)[C@H](CC)NC)C(=O)N1CCC[C@H]1C(=O)N[C@@H]1CCCc2ccccc21)C(=O)N1CCC[C@H]1C(=O)N[C@@H]1CCCc2ccccc21 [Compound P2-12] | 0.021 |
| CN[C@@H](C)C(=O)N[C@@H](CCCCCC[C@H](NC(=O)[C@H](C)NC)C(=O)N1CCC[C@H]1C(=O)NCc1ccc(F)cc1)C(=O)N1CCC[C@H]1C(=O)NCc1ccc(F)cc1 [Compound P2-7] | 0.17 |
| CN[C@@H](C)C(=O)N[C@H](C(=O)N1CCC[C@H]1C(=O)N[C@H](CNC(=O)C1CCC(C(=O)NC[C@@H](NC(=O)[C@@H]2CCCN2C(=O)[C@@H](NC(=O)[C@H](C)NC)C(C)(C)C)C2CCCCC2)CC1)C1CCCCC1)C(C)(C)C (some centres unmarked) [Compound P4-6] | 0.07 |
| CN[C@@H](C)C(=O)N[C@@H](CC#CC#CC[C@H](NC(=O)[C@H](C)NC)C(=O)N1CSC[C@H]1C(=O)N[C@@H]1CCCc2ccccc21)C(=O)N1CSC[C@H]1C(=O)N[C@@H]1CCCc2ccccc21 [Compound P2-33] | 0.188 |
| CN[C@@H](C)C(=O)NC(C(=O)N1CCC[C@H]1C(=O)NC1CCCc2ccccc21)c1ccc(-c2ccc(C(NC(=O)[C@H](C)NC)C(=O)N3CCC[C@H]3C(=O)NC3CCCc4ccccc43)cc2)cc1 (some centres unmarked) [Compound P2-2] | 0.098 |
| CCC[C@H](NC)C(=O)N[C@H](C(=O)N1CC[C@H](NC(=O)c2cccc(C(=O)N[C@H]3C[C@@H](C(=O)N[C@@H]4CCCc5ccccc54)N(C(=O)[C@@H](NC(C)[C@H](C)NC)C(C)C)C3)c2)C1)C(C)(C)C (some centres unmarked) [Compound H-4] | 1.69 |
| CN[C@@H](C)C(=O)N[C@H](C(=O)N1CCC[C@H]1Cn1nnnc1S(=O)(=O)c1ccc(C)cc1)[C@@H](C)OCC#CC#CCO[C@H](C)[C@H](NC(=O)[C@H](C)NC)C(=O)N1CCC[C@H]1Cn1nnnc1S(=O)(=O)c1ccc(C)cc1 [Compound P2-22] | 0.18 |
| CN[C@@H](C)C(=O)N[C@H](C(=O)N1CCC[C@H]1C(=O)N[C@H](COCc1ccc(COC[C@@H](NC(=O)[C@@H]2CCCN2C(=O)[C@@H](NC(=O)[C@H](C)NC)C(C)(C)C)C2CCCCC2)cc1)C1CCCCC1)C(C)(C)C [Compound P4-17] | 0.015 |

Same assay, conditions: HCC461, HCC461 cells, compound alone; read-out: IC50 (uM) in cell viability assay in HCC461

| Structure (SMILES) | IC50 [µM] |
| --- | --- |
| CN[C@@H](C)C(=O)N[C@H](C(=O)N1C[C@@H](NC(=O)c2cc(C(=O)N[C@H]3C[C@@H](C(=O)N[C@@H]4CCCc5ccccc54)N(C(=O)[C@@H](NC(=O)[C@H](C)NC)C(C)(C)C)C3)cc(C(C)(C)C)c2)C[C@H]1C(=O)N[C@@H]1CCCc2ccccc21)C(C)(C)C [Compound P3-23] | 0.007 |
| CN[C@@H](C)C(=O)N[C@H](C(=O)N1C[C@@H](NC(=O)c2cc(C(=O)N[C@H]3C[C@@H](C(=O)N[C@@H]4CCCc5ccccc54)N(C(=O)[C@@H](NC(=O)[C@H](C)NC)C(C)(C)C)C3)cc(N(S(C)(=O)=O)S(C)(=O)=O)c2)C[C@H]1C(=O)N[C@@H]1CCCc2ccccc21)C(C)(C)C [Compound P3-41] | 0.016 |
| CN[C@@H](C)C(=O)N[C@H](C(=O)N1C[C@@H](NC(=O)CCCC(=O)N[C@H]2C[C@@H](C(=O)NC3c4ccccc4-c4ccccc43)N(C(=O)[C@@H](NC(=O)[C@H](C)NC)C(C)(C)C)C2)C[C@H]1C(=O)NC1c2ccccc2-c2ccccc21)C(C)(C)C [Compound P3-3] | 0.07 |
| CN[C@@H](C)C(=O)N[C@H](C(=O)N1C[C@@H](NC(=O)[C@@H]2[C@@H]3CC[C@@H](C3)[C@@H]2C(=O)N[C@H]2C[C@@H](C(=O)N[C@@H]3CCCc4ccccc43)N(C(=O)[C@@H](NC(=O)[C@H](C)NC)C(C)(C)C)C2)C[C@H]1C(=O)N[C@@H]1CCCc2ccccc21)C(C)(C)C [Compound P3-34] | 0.08 |
| CN[C@@H](C)C(=O)N[C@H](C(=O)N[C@@H](CCCCCC[C@H](NC(=O)[C@@H](NC(=O)[C@H](C)NC)C(C)(C)C)C(=O)N[C@@H]1CCCc2ccccc21)C(=O)N[C@@H]1CCCc2ccccc21)C(C)(C)C [Compound P3-65] | 0.002 |
| CN[C@@H](C)C(=O)N[C@H](C(=O)N1C[C@@H](NC(=O)c2cncc(C(=O)N[C@H]3C[C@@H](C(=O)N[C@@H]4CCCc5ccccc54)N(C(=O)[C@@H](NC(=O)[C@H](C)NC)C(C)(C)C)C3)c2)C[C@H]1C(=O)N[C@@H]1CCCc2ccccc21)C(C)(C)C [Compound P3-11] | 0.003 |
| CN[C@@H](C)C(=O)N[C@H](C(=O)N1C[C@@H](N2CC(CCCC3CN([C@H]4C[C@@H](C(=O)NC5c6ccccc6-c6ccccc65)N(C(=O)[C@@H](NC(=O)[C@H](C)NC)C(C)(C)C)C4)N=N3)N=N2)C[C@H]1C(=O)NC1c2ccccc2-c2ccccc21)C(C)(C)C (some centres unmarked) [Compound P3-6] | 0.007 |
| CN[C@@H](C)C(=O)N[C@H](C(=O)N1C[C@@H](NC(=O)[C@H](O)[C@@H](O)C(=O)N[C@H]2C[C@@H](C(=O)NC3c4ccccc4-c4ccccc43)N(C(=O)[C@@H](NC(=O)[C@H](C)NC)C(C)(C)C)C2)C[C@H]1C(=O)NC1c2ccccc2-c2ccccc21)C(C)(C)C [Compound P3-15] | 0.017 |
| CN[C@@H](C)C(=O)N[C@H](C(=O)N1C[C@@H](NC(=O)C[C@H](NC(=O)OCC2c3ccccc3-c3ccccc32)C(=O)N[C@H]2C[C@@H](C(=O)N[C@@H]3CCCc4ccccc43)N(C(=O)[C@@H](NC(=O)[C@H](C)NC)C(C)(C)C)C2)C[C@H]1C(=O)N[C@@H]1CCCc2ccccc21)C(C)(C)C [Compound P3-66] | 0.258 |
| CN[C@@H](C)C(=O)N[C@H](C(=O)N1C[C@@H](NC(=O)CCCCCCC(=O)N[C@H]2C[C@@H](C(=O)N[C@@H]3CCCc4ccccc43)N(C(=O)[C@@H](NC(=O)[C@H](C)NC)C(C)(C)C)C2)C[C@H]1C(=O)N[C@@H]1CCCc2ccccc21)C(C)(C)C [Compound P3-85] | 0.099 |
| CN[C@@H](C)C(=O)N[C@H](C(=O)N1C[C@@H](NC(=O)C(O)CC(=O)N[C@H]2C[C@@H](C(=O)NC3CCCc4ccccc43)N(C(=O)[C@@H](NC(=O)[C@H](C)NC)C(C)(C)C)C2)CC1C(=O)N[C@@H]1CCCc2ccccc21)C(C)(C)C (some centres unmarked) [Compound P3-84] | 0.1 |

Same assay, conditions: HCC461; Tables 6-9; read-out: IC50 (μM) in cell viability assay in HCC461

| Structure (SMILES) | IC50 [µM] |
| --- | --- |
| C[C@H](NC(=O)OCc1ccc([N+](=O)[O-])cc1)C(=O)NC(C(=O)N1C[C@@H](NC(=O)c2cc(C(=O)N[C@H]3C[C@@H](C(=O)N[C@@H]4CCCc5ccccc54)N(C(=O)[C@@H](NC(=O)[C@H](C)NC(=O)OCc4ccc([N+](=O)[O-])cc4)C(C)(C)C)C3)cc(S(=O)(=O)O)c2)CC1C(=O)N[C@@H]1CCCc2ccccc21)C(C)(C)C (some centres unmarked) [Compound 112] | > 30 |
| CN[C@@H](C)C(=O)N[C@H](C(=O)N1C[C@@H](NC(=O)c2cccc(C(=O)NCCCC[C@H](NC(=O)[C@@H](NC(=O)[C@H](CO)NC)C(C)(C)C)C(=O)N[C@@H](C)C(C)C)c2)CC1C(=O)N[C@@H]1CCc2ccccc2C1)C(C)(C)C (some centres unmarked) [Compound 165] | > 30 |

Same assay, conditions: HCC461; Tables 15-18; read-out: IC50 (uM) in cell viability assay in HCC461

| Structure (SMILES) | IC50 [µM] |
| --- | --- |
| CC[C@H](NC)C(=O)N[C@@H](CC#CC#CC[C@H](NC(=O)[C@H](CC)NC)C(=O)N1CCC[C@H]1C(=O)N[C@@H]1CCCc2ccccc21)C(=O)N1CCC[C@H]1C(=O)N[C@@H]1CCCc2ccccc21 [Compound P2-8] | 0.009 |
| CN[C@@H](C)C(=O)N[C@H](C(=O)N1CCC[C@H]1C(=O)N[C@H](CNC(=O)C1CCCCC1C(=O)NC[C@@H](NC(=O)[C@@H]1CCCN1C(=O)[C@@H](NC(=O)[C@H](C)NC)C(C)(C)C)C1CCCCC1)C1CCCCC1)C(C)(C)C (single isomer, unassigned) [Compound P4-2] | 0.12 |
| CN[C@@H](C)C(=O)N[C@@H](CC#CC#CC[C@H](NC(=O)[C@H](C)NC)C(=O)N1C[C@@H](NC(C)c2ccccc2)C[C@H]1C(=O)N[C@@H]1CCCc2ccccc21)C(=O)N1C[C@@H](NC(=O)c2ccccc2)C[C@H]1C(=O)N[C@@H]1CCCc2ccccc21 (some centres unmarked) [Compound P2-10] | 0.109 |
